According to PubChem BioAssay (NCI):
“And” between values parts separate entries of the source, which are not always exact repeats. Equal entries are not always repeated.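 Where inhibition never reached the appropriate level, the endpoint shown equals the highest concentration tested. Otherwise, values were interpolated linearly from a five-concentration, 48-hour dose response in 96-well plates. GI50: concentration for 50% inhibition of growth. TGI is the concentration that stops growth completely.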

Legend:
Experiment in all cases: NCI-60 cell line screen, 48 h
[1] = test system: BT-549 breast
[2] = test system: SN12C renal
[3] = test system: COLO 205 colon
[4] = test system: SK-MEL-5 melanoma
[5] = test system: SNB-19 CNS
[6] = test system: SW-620 colon
[7] = test system: IGROV1 ovarian
[8] = test system: HCT-116 colon
[9] = test system: SNB-75 CNS
[10] = test system: EKVX NSCLC

Compound	GI50 [1] [µM]	TGI [1] [µM]	GI50 [2] [µM]	TGI [2]	GI50 [3] [µM]	TGI [3]	GI50 [4] [µM]	TGI [4]	GI50 [5] [µM]	TGI [5]	GI50 [6] [µM]	TGI [6]	GI50 [7] [µM]	TGI [7]	GI50 [8] [µM]	TGI [8]	GI50 [9] [µM]	TGI [9] [µM]	GI50 [10] [µM]	TGI [10] [µM]
CCOC(=O)c1cc2c(n1Cc1ccccc1OC)-c1oncc1CCC2	7.73	> 100	> 100	> 100 µM	0.878	3.97 µM	2.61	> 100 µM	64.7	> 100 µM	2.02	> 100 µM	1.99	> 100 µM	3.79	> 100 µM				
COc1cc(/C=C/c2ccnc3ccccc23)cc(OC)c1OC			4.4	31 µM and > 100 µM	3.26	7.36 µM and 15.1 µM		10.5 µM and 11.5 µM	6.71	42.1 µM and > 100 µM	0.906	> 100 µM and 20 µM	4.94	35 µM and > 100 µM	2.88	12.1 µM and 18.5 µM	1.7	5.4	6.27	> 100
CNC(=O)NCCN1N=C(C)/C(=C\c2ccccc2)CC1=O				> 100 µM				> 100 µM		> 100 µM		> 100 µM		> 100 µM		> 100 µM		> 100		
c1ccc2c(c1)[nH]c1c3ccccc3sc21				> 100 µM		> 100 µM		> 100 µM		> 100 µM		> 100 µM		> 100 µM		> 100 µM		> 100		> 100
CCc1cccc(NC(=O)c2cc(/C=C/c3ccccc3)[nH]c(=S)n2)c1				> 100 µM		> 100 µM		> 100 µM		> 100 µM		> 100 µM		> 100 µM		> 100 µM		> 100		> 100
Nc1cc(N)c2nc(-c3ccccc3)c(NCc3ccc(Cl)c(Cl)c3)nc2c1			5.98	24 µM	16.9	33.6 µM	3.48	10.7 µM	22.5	50.8 µM	3.26	9.88 µM	1.97	5.95 µM	11.5	24.1 µM			10.9	38.7
CC[Si](CC)(CC)OC1[C@@H](O[Si](CC)(CC)CC)[C@@H](CNC(=O)NC)O[C@H]1n1cnc2c(NC(=O)Nc3ccccc3)ncnc21 (stereo partly drawn)	3	12.2	2.04	4.92 µM	2.09	3.62 µM	2.01	4.02 µM	5.28	> 100 µM	4.1	> 100 µM	5.02	> 100 µM	3.26	15.2 µM	3.95	> 100		
CCc1ccccc1NC(=O)C(=O)C(C#N)c1c(Cl)cccc1Cl (stereo not drawn)				> 100 µM						> 100 µM		> 100 µM		> 100 µM		> 100 µM		> 100		> 100
COc1cccc(-c2nn(-c3ccccc3)cc2-c2ccnc(NCCCNS(=O)(=O)c3ccc(C(F)(F)F)cc3)c2)c1	4.41	> 100	8.4	> 100 µM	2.5	7.77 µM	2.18	5.04 µM			11.2	> 100 µM	10.7	> 100 µM	4.18	> 100 µM	5.1	> 100	4.61	> 100
CCN(CC)CCCNc1cc(OC)c(OC)c2cccnc12	18.6	36.5	2.47	7.7 µM	10	23.2 µM	5.67	19.9 µM	13.1	45 µM	1.8	20.2 µM			2.18	7.58 µM	3.05	14.8	16.4	54.8
CC(C)(C)OC1=C(OC(C)(C)C)C(O)(c2ccc(Cl)cc2)C1=O (stereo not drawn)				> 100 µM		> 100 µM		> 100 µM		> 100 µM		> 100 µM		> 100 µM				> 100		> 100
CCOC(=O)CCn1cnc(N)n1				> 100 µM		> 100 µM		> 100 µM		> 100 µM		> 100 µM		> 100 µM		> 100 µM		> 100		> 100
O=C1CCc2ccc(O)c(c2)Oc2ccc(cc2)[C@@H]2O[C@@H]2CO1				> 100 µM		> 100 µM		58.2 µM		> 100 µM		> 100 µM		50.5 µM		> 100 µM		> 100		> 100
Nc1nc(N)c(-c2ccc(Cl)c(Cl)c2)c(CP(Cl)(Cl)(Cl)Br)n1	40.7	> 100	6.47	> 100 µM	10.4	> 100 µM	6.72	56.6 µM	31.9	> 100 µM	4.2	> 100 µM	8.92	61.8 µM	3.52	> 100 µM	39.7	> 100		
Cc1ccc(/C(=C/C=C(C#N)C#N)Sc2nc3ccccc3s2)cc1	0.793	3.65	1.98	4.55 µM	3.84	16 µM	13.3	26.6 µM	14.8	34.1 µM	2.42	5.73 µM	4.78	29.8 µM	2.47	6.3 µM			17.7	39.4
N#CC1=C(c2ccccc2)OC2(N)OC(c3ccccc3)=C(C#N)C12C#N (stereo not drawn)				> 100 µM		> 100 µM		> 100 µM		> 100 µM		> 100 µM		> 100 µM				> 100		> 100
CC[P+]1(c2ccccc2)CCCCC1				> 100 µM		> 100 µM		> 100 µM		> 100 µM		> 100 µM		> 100 µM		> 100 µM		> 100		> 100

Compound	GI50 [1] [µM]	TGI [1] [µM]	GI50 [2] [µM]	TGI [2]	GI50 [3] [µM]	TGI [3]	GI50 [4] [µM]	TGI [4]	GI50 [5] [µM]	TGI [5]	GI50 [6] [µM]	TGI [6]	GI50 [7] [µM]	TGI [7]	GI50 [8] [µM]	TGI [8]	GI50 [9] [µM]	TGI [9] [µM]	GI50 [10] [µM]	TGI [10] [µM]
CCCCNCCCCCNc1cc(OC)cc2cccnc12	14.5	28.8	36.5	> 100 µM	17.2	33.8 µM	12.6	27.6 µM	13.8	31.5 µM	19.2	39.4 µM	14.6	29.1 µM	13.6	26.6 µM			29.6	99.2
Cc1ccc(NC(=O)CCC(=O)C2Cc3ccccc3C2=O)cc1C (stereo not drawn)				> 100 µM		> 100 µM		> 100 µM		> 100 µM		> 100 µM		> 100 µM		> 100 µM		> 100		> 100
CC(=O)c1ccc(Oc2c3ccccc3nc3occc23)cc1	47.3	> 100			24.1	> 100 µM	8.75	> 100 µM	7.98	> 100 µM	4.87	> 100 µM	55.7	> 100 µM	7.35	> 100 µM	21.1	> 100	73.3	> 100
C=C1C(O)C2CC(C)(C)C(=O)C2=C(CC(C)C)C12CC2 (stereo not drawn)	> 100	> 100	> 100	> 100 µM	> 100	> 100 µM	> 100	> 100 µM	> 100	> 100 µM	> 100	> 100 µM	55.6	> 100 µM	> 100	> 100 µM			> 100	> 100
CCOP(=O)(OCC)C(NC(c1ccccc1)c1ccccc1)c1ccc(C(C)C)cc1 (stereo not drawn)	6.8	28.9	4.65	16.8 µM			3.35	7.86 µM	26.6	> 100 µM	4.08	20.3 µM			3.08	11.3 µM	5.28	25.9	6.01	20.4
CN(C)CCNC(=O)c1cccc2c1nc(-c1ccncc1)c1ccccc12				14.8 µM		9.66 µM		6.8 µM		27.2 µM		19.1 µM		20.1 µM		9.23 µM		15.8		10
O=C(CC1Sc2ccccc2NC1=O)NNc1ccc(F)cc1 (stereo not drawn)	> 100	> 100	22.1	> 100 µM	55.6	> 100 µM	46.1	> 100 µM			38.5	> 100 µM	40.5	> 100 µM	77.3	> 100 µM	14.9	> 100	> 100	> 100
CSc1cc(C(C)(C)C)ccc1C(O)c1ccc(C(C)(C)C)cc1SC				25.8 µM		23 µM		27.5 µM		34.3 µM		23.9 µM		26.2 µM		17.8 µM		32.3		21.2
CC(=O)[CH-]C(=O)c1ccccc1.CC(=O)[CH-]C(=O)c1ccccc1.CC(=O)[CH-]C(=O)c1ccccc1.[Br-].[Zr+4]			57.1	> 100 µM	> 100	> 100 µM	> 100	> 100 µM			> 100	> 100 µM	> 100	> 100 µM			34	> 100	57.5	> 100
COC(=O)[C@H](CCCCNC(=O)OCc1ccccc1)NC(=O)[C@@H](NC(=O)Nc1cc(C(F)(F)F)cc(C(F)(F)F)c1)C(C)C	> 10	> 10	> 10	> 10 µM	> 10	> 10 µM	> 10	> 10 µM	> 10	> 10 µM	> 10	> 10 µM	> 10	> 10 µM	> 10	> 10 µM	> 10	> 10		
O=C(Nc1ccc(Cl)cc1)N1CCN(c2ccc3nncn3n2)CC1	57.4	> 100	72.4	> 100 µM	51.6	> 100 µM	37.3	> 100 µM	> 100	> 100 µM	60.8	> 100 µM	> 100	> 100 µM	64	> 100 µM	> 100	> 100		
N#CCC(=O)Nc1ccccc1O				> 100 µM		> 100 µM		> 100 µM		> 100 µM		> 100 µM		> 100 µM		> 100 µM		> 100		> 100
COc1cc(NCCC2CCCCN2)c2ncccc2c1OC (stereo not drawn)	19.9	34.8	2.23	6.77 µM	10	24.2 µM	4.28	14.9 µM	18.7	42.3 µM	5.5	21.2 µM			1.94	3.7 µM	3.85	19.5	15.6	48.6
N#CC(C#N)=C1CCC2C(=C(C#N)C#N)CCC12 (stereo not drawn)				> 100 µM		> 100 µM		> 100 µM		> 100 µM		> 100 µM		> 100 µM		> 100 µM		> 100		> 100
CCOC(=O)c1cc(C(=O)c2cc(OC)c(OC)c(OC)c2)n2ccc(-c3cc[n+](CC(=O)c4cc(OC)c(OC)c(OC)c4)cc3)cc12	1.98	4.49	1.87	3.87 µM			1.81	3.54 µM			1.76	3.47 µM	2.12	5.92 µM	1.72	3.5 µM	1.46	3.36	2.64	10.3
COc1ccc(NC(=O)c2cccc(C3CCc4c(cc(OC)c(OC)c4OC)O3)c2)cc1 (stereo not drawn)	2.83	> 100	3.7	> 100 µM	2.39	6.67 µM	1.67	3.89 µM	4.16	> 100 µM	4.45	> 100 µM	4.96	> 100 µM	3.65	> 100 µM			3.28	> 100
FC(F)(F)c1nc(Br)[nH]c1C(F)(F)F				> 100 µM		> 100 µM		> 100 µM		> 100 µM		> 100 µM		> 100 µM		> 100 µM		> 100		> 100
